Test results reported in patent publication US20230382949A1 (HEPTARES THERAPEUTICS LIMITED, priority 2020, published 2023).
Starred links: 1 amine or outer side, 2 acyl side, 3 side chain; linkers in the order of their positions; H or OH if unused. Non-standard residues stand in square brackets, D forms with d. Residues, ends and D or L forms follow the SMILES beside them. *: point of attachment. Ala(piperidin-4-yl) = O=C([C@H](CC1CCN([*:3])CC1)N[*:1])[*:2]; Malonyl(2,2-Me2,histaminyl) = CC(C)(C(=O)NCCc1cnc[nH]1)C(=O)*; Bip = N[C@@H](Cc1ccc(-c2ccccc2)cc1)C(=O)O; dBip = N[C@H](Cc1ccc(-c2ccccc2)cc1)C(=O)O; Oic = O=C(O)[C@@H]1C[C@@H]2CCCC[C@@H]2N1; Phe(3-Cl) = N[C@@H](Cc1cccc(Cl)c1)C(=O)O; Phe(4-Br) = N[C@@H](Cc1ccc(Br)cc1)C(=O)O; Phe(4-Cl) = N[C@@H](Cc1ccc(Cl)cc1)C(=O)O; 2Nal = N[C@@H](Cc1ccc2ccccc2c1)C(=O)O; hArg = N=C(N)NCCCC[C@H](N)C(=O)O; tBuAla = CC(C)(C)C[C@H](N)C(=O)O; 3Pal = N[C@@H](Cc1cccnc1)C(=O)O; Cba = N[C@@H](CC1CCC1)C(=O)O; Pip = O=C(O)[C@@H]1CCCCN1; Aib = CC(C)(N)C(=O)O; Bn = c1ccc(C*)cc1

Columns and labels:
[1] = target: T1, human Apelin receptor (Homo sapiens, UniProt P35414); assay: cAMP accumulation assay (HTRF), functional agonism of human Apelin receptors; assay type: cell-based; conditions: CHO cells stably expressing the human Apelin receptor, 3 uM forskolin; for Emax: CHO, Human Apelin agonist cAMP assay; for EC50: pEC50, Human Apelin agonist cAMP assay
T1 sequence (P35414 1-380): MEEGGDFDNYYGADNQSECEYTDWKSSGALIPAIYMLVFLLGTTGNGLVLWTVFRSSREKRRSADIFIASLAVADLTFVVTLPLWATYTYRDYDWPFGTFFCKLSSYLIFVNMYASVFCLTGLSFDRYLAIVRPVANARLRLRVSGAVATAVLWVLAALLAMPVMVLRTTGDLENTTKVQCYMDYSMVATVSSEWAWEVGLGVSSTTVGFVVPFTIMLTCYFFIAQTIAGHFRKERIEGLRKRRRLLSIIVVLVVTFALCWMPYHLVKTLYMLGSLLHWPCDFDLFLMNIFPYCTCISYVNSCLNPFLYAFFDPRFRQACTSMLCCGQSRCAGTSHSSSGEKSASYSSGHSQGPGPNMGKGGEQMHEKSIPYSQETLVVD
Source text: cAMP functional assay. cAMP production was quantified using the Homogeneous Time-Resolved Fluorescence (HTRF) cAMP dynamic-2 assay (Cisbio, France).

[2] = target: T2, human Apelin receptor (Homo sapiens, UniProt P35414); assay: β-arrestin accumulation assay, functional agonism of human Apelin receptors; assay type: cell-based
T2 construct: host or cells: CHO-K1 cells
Description: β-arrestin assay. […] After 16 h incubation at 37° C. media was removed and cells were incubated at 37° C. for 90 min in serum free media containing increasing concentrations of test agonist. The assay reaction was stopped by adding detection reagent (DiscoveRx) and incubation for 60 min in the dark. Levels of receptor activation were then measured on a PheraStar fluorescence plate reader (BMG LabTech) and EC50 values were determined using Graphpad Prism.
T2 sequence (P32121 whole entry partner, one chain of several): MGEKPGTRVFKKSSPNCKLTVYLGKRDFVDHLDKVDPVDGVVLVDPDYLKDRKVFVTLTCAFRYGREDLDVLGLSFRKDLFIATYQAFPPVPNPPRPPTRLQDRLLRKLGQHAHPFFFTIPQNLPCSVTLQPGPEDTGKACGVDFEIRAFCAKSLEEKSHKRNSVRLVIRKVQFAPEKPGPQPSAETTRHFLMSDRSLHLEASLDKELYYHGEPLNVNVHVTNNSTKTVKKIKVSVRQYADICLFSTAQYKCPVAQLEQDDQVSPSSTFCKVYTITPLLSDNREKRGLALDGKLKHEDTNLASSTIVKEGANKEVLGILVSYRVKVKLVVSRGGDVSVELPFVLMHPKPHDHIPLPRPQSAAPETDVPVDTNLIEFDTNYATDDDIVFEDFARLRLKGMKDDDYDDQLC

CC(C)C[C@H](NC(=O)[C@@H](CCCNC(=N)N)NC(=O)[C@@H]1CCCCN1C(=O)[C@H](CCCCNC(=N)N)NC(=O)[C@H](CCC(N)=O)NC(=O)[C@@H](CCCNC(=N)N)NC(=O)C(C)(C)C(=O)NCCc1c[nH]cn1)C(=O)NC(C)(C)C(=O)N[C@@H](Cc1c[nH]cn1)C(=O)N[C@@H](CC1CCNCC1)C(=O)NCC(=O)N1[C@H](C(=O)N[C@@H](Cc2ccc(Br)cc2)C(=O)N2CCC[C@H]2C(=O)N[C@H](Cc2ccc(-c3ccccc3)cc2)C(=O)O)C[C@@H]2CCCC[C@@H]21 [Example 12] ({Malonyl(2,2-Me2,histaminyl)}-[dR]Q[hArg][Pip][dR]L[Aib]H[Ala(piperidin-4-yl)]G[Oic][Phe(4-Br)]P[dBip]-OH)
Emax [1]: 98.9%
EC50 [1]: 7.94 nM
EC50 [2]: > 10 µM

CC(C)(C)C[C@H](NC(=O)[C@@H](CCCNC(=N)N)NC(=O)[C@@H]1CCCN1C(=O)[C@H](CCCCNC(=N)N)NC(=O)[C@H](CCC(N)=O)NC(=O)[C@@H](CCCNC(=N)N)NC(=O)C(C)(C)C(=O)NCCc1c[nH]cn1)C(=O)NC(C)(C)C(=O)N[C@@H](Cc1c[nH]cn1)C(=O)N[C@@H](CC1CCNCC1)C(=O)NCC(=O)N1[C@H](C(=O)N[C@@H](Cc2ccc(Br)cc2)C(=O)N2CCC[C@H]2C(=O)N[C@H](Cc2ccc(-c3ccccc3)cc2)C(=O)O)C[C@@H]2CCCC[C@@H]21 [Example 13] ({Malonyl(2,2-Me2,histaminyl)}-[dR]Q[hArg]P[dR][tBuAla][Aib]H[Ala(piperidin-4-yl)]G[Oic][Phe(4-Br)]P[dBip]-OH)
Emax [1]: 72.9%
EC50 [1]: 25.1 nM
EC50 [2]: > 10 µM

CC(C)(NC(=O)[C@H](CC1CCC1)NC(=O)[C@@H](CCCNC(=N)N)NC(=O)[C@@H]1CCCN1C(=O)[C@H](CCCCNC(=N)N)NC(=O)[C@H](CCC(N)=O)NC(=O)[C@@H](CCCNC(=N)N)NC(=O)C(C)(C)C(=O)NCCc1c[nH]cn1)C(=O)N[C@@H](Cc1c[nH]cn1)C(=O)N[C@@H](CC1CCNCC1)C(=O)NCC(=O)N1[C@H](C(=O)N[C@@H](Cc2ccc(Br)cc2)C(=O)N2CCC[C@H]2C(=O)N[C@H](Cc2ccc(-c3ccccc3)cc2)C(=O)O)C[C@@H]2CCCC[C@@H]21 [Example 14] ({Malonyl(2,2-Me2,histaminyl)}-[dR]Q[hArg]P[dR][Cba][Aib]H[Ala(piperidin-4-yl)]G[Oic][Phe(4-Br)]P[dBip]-OH)
Emax [1]: 77%
EC50 [1]: 7.94 nM
EC50 [2]: > 10 µM

CC(C)C[C@H](NC(=O)[C@@H](CCCNC(=N)N)NC(=O)[C@@H]1CCCN1C(=O)[C@H](CCCCNC(=N)N)NC(=O)[C@H](CCC(N)=O)NC(=O)[C@@H](CCCNC(=N)N)NC(=O)C(C)(C)C(=O)NCCc1c[nH]cn1)C(=O)NC(C)(C)C(=O)N[C@@H](Cc1cccnc1)C(=O)N[C@@H](CC1CCNCC1)C(=O)NCC(=O)N1[C@H](C(=O)N[C@@H](Cc2ccc(Br)cc2)C(=O)N2CCC[C@H]2C(=O)N[C@H](Cc2ccc(-c3ccccc3)cc2)C(=O)O)C[C@@H]2CCCC[C@@H]21 [Example 15] ({Malonyl(2,2-Me2,histaminyl)}-[dR]Q[hArg]P[dR]L[Aib][3Pal][Ala(piperidin-4-yl)]G[Oic][Phe(4-Br)]P[dBip]-OH)
Emax [1]: 86.4%
EC50 [1]: 7.94 nM
EC50 [2]: > 10 µM

CC(C)C[C@H](NC(=O)[C@@H](CCCNC(=N)N)NC(=O)[C@@H]1CCCN1C(=O)[C@H](CCCCNC(=N)N)NC(=O)[C@H](CCC(N)=O)NC(=O)[C@@H](CCCNC(=N)N)NC(=O)C(C)(C)C(=O)NCCc1c[nH]cn1)C(=O)NC(C)(C)C(=O)N[C@@H](Cc1c[nH]cn1)C(=O)N[C@@H](CC1CCNCC1)C(=O)N[C@@H](C)C(=O)N1[C@H](C(=O)N[C@@H](Cc2ccc(Br)cc2)C(=O)N2CCC[C@H]2C(=O)N[C@H](Cc2ccc(-c3ccccc3)cc2)C(=O)O)C[C@@H]2CCCC[C@@H]21 [Example 16] ({Malonyl(2,2-Me2,histaminyl)}-[dR]Q[hArg]P[dR]L[Aib]H[Ala(piperidin-4-yl)]A[Oic][Phe(4-Br)]P[dBip]-OH)
Emax [1]: 64.8%
EC50 [1]: 5.01 nM
EC50 [2]: > 1 µM

CC(C)C[C@H](NC(=O)[C@@H](CCCNC(=N)N)NC(=O)[C@@H]1CCCN1C(=O)[C@H](CCCCNC(=N)N)NC(=O)[C@H](CCC(N)=O)NC(=O)[C@@H](CCCNC(=N)N)NC(=O)C(C)(C)C(=O)NCCc1c[nH]cn1)C(=O)NC(C)(C)C(=O)N[C@@H](Cc1c[nH]cn1)C(=O)N[C@@H](CC1CCNCC1)C(=O)NCC(=O)N1[C@H](C(=O)N[C@@H](Cc2ccc(Cl)cc2)C(=O)N2CCC[C@H]2C(=O)N[C@H](Cc2ccc(-c3ccccc3)cc2)C(=O)O)C[C@@H]2CCCC[C@@H]21 [Example 17] ({Malonyl(2,2-Me2,histaminyl)}-[dR]Q[hArg]P[dR]L[Aib]H[Ala(piperidin-4-yl)]G[Oic][Phe(4-Cl)]P[dBip]-OH)
Emax [1]: 78.8%
EC50 [1]: 25.1 nM
EC50 [2]: > 10 µM

CC(C)C[C@H](NC(=O)[C@@H](CCCNC(=N)N)NC(=O)[C@@H]1CCCN1C(=O)[C@H](CCCCNC(=N)N)NC(=O)[C@H](CCC(N)=O)NC(=O)[C@@H](CCCNC(=N)N)NC(=O)C(C)(C)C(=O)NCCc1c[nH]cn1)C(=O)NC(C)(C)C(=O)N[C@@H](Cc1c[nH]cn1)C(=O)N[C@@H](CC1CCNCC1)C(=O)NCC(=O)N1[C@H](C(=O)N[C@@H](Cc2cccc(Cl)c2)C(=O)N2CCC[C@H]2C(=O)N[C@H](Cc2ccc(-c3ccccc3)cc2)C(=O)O)C[C@@H]2CCCC[C@@H]21 [Example 18] ({Malonyl(2,2-Me2,histaminyl)}-[dR]Q[hArg]P[dR]L[Aib]H[Ala(piperidin-4-yl)]G[Oic][Phe(3-Cl)]P[dBip]-OH)
Emax [1]: 47.5%
EC50 [1]: 79.4 nM
EC50 [2]: > 10 µM

CC(C)C[C@H](NC(=O)[C@@H](CCCNC(=N)N)NC(=O)[C@@H]1CCCN1C(=O)[C@H](CCCCNC(=N)N)NC(=O)[C@H](CCC(N)=O)NC(=O)[C@@H](CCCNC(=N)N)NC(=O)C(C)(C)C(=O)NCCc1c[nH]cn1)C(=O)NC(C)(C)C(=O)N[C@@H](Cc1c[nH]cn1)C(=O)N[C@@H](CC1CCNCC1)C(=O)NCC(=O)N1[C@H](C(=O)N[C@@H](Cc2ccc(-c3ccccc3)cc2)C(=O)N2CCC[C@H]2C(=O)N[C@H](Cc2ccc(-c3ccccc3)cc2)C(=O)O)C[C@@H]2CCCC[C@@H]21 [Example 19] ({Malonyl(2,2-Me2,histaminyl)}-[dR]Q[hArg]P[dR]L[Aib]H[Ala(piperidin-4-yl)]G[Oic][Bip]P[dBip]-OH)
Emax [1]: 97%
EC50 [1]: 20 nM
EC50 [2]: > 10 µM

CC(C)C[C@H](NC(=O)[C@@H](CCCNC(=N)N)NC(=O)[C@@H]1CCCN1C(=O)[C@H](CCCCNC(=N)N)NC(=O)[C@H](CCC(N)=O)NC(=O)[C@@H](CCCNC(=N)N)NC(=O)C(C)(C)C(=O)NCCc1c[nH]cn1)C(=O)NC(C)(C)C(=O)N[C@@H](Cc1c[nH]cn1)C(=O)N[C@@H](CC1CCNCC1)C(=O)NCC(=O)N1[C@H](C(=O)N[C@@H](Cc2ccc3ccccc3c2)C(=O)N2CCC[C@H]2C(=O)N[C@H](Cc2ccc(-c3ccccc3)cc2)C(=O)O)C[C@@H]2CCCC[C@@H]21 [Example 20] ({Malonyl(2,2-Me2,histaminyl)}-[dR]Q[hArg]P[dR]L[Aib]H[Ala(piperidin-4-yl)]G[Oic][2Nal]P[dBip]-OH)
Emax [1]: 84.1%
EC50 [1]: 12.6 nM
EC50 [2]: > 10 µM

CC(C)C[C@H](NC(=O)[C@@H](CCCNC(=N)N)NC(=O)[C@@H]1CCCN1C(=O)[C@H](CCCCNC(=N)N)NC(=O)[C@H](CCC(N)=O)NC(=O)[C@@H](CCCNC(=N)N)NC(=O)C(C)(C)C(=O)NCCc1c[nH]cn1)C(=O)NC(C)(C)C(=O)N[C@@H](Cc1c[nH]cn1)C(=O)N[C@@H](CC1CCNCC1)C(=O)NCC(=O)N1[C@H](C(=O)N[C@@H](Cc2ccc(Br)cc2)C(=O)N2CCCC[C@H]2C(=O)N[C@H](Cc2ccc(-c3ccccc3)cc2)C(=O)O)C[C@@H]2CCCC[C@@H]21 [Example 21] ({Malonyl(2,2-Me2,histaminyl)}-[dR]Q[hArg]P[dR]L[Aib]H[Ala(piperidin-4-yl)]G[Oic][Phe(4-Br)][Pip][dBip]-OH)
Emax [1]: 54.5%
EC50 [1]: 10 nM
EC50 [2]: > 1 µM

CC(C)C[C@H](NC(=O)[C@@H](CCCNC(=N)N)NC(=O)[C@@H]1CCCN1C(=O)[C@H](CCCCNC(=N)N)NC(=O)[C@H](CCC(N)=O)NC(=O)[C@@H](CCCNC(=N)N)NC(=O)C(C)(C)C(=O)NCCc1c[nH]cn1)C(=O)NC(C)(C)C(=O)N[C@@H](Cc1c[nH]cn1)C(=O)N[C@@H](CC1CCNCC1)C(=O)NCC(=O)N1[C@H](C(=O)N[C@@H](Cc2ccc(Br)cc2)C(=O)N2CCC[C@H]2C(=O)N[C@H](Cc2ccc(OCc3ccccc3)cc2)C(=O)O)C[C@@H]2CCCC[C@@H]21 [Example 22] ({Malonyl(2,2-Me2,histaminyl)}-[dR]Q[hArg]P[dR]L[Aib]H[Ala(piperidin-4-yl)]G[Oic][Phe(4-Br)]P[dY](Bn)-OH)
Emax [1]: 98.1%
EC50 [1]: 7.94 nM
EC50 [2]: > 10 µM
